# Values joined by “and” are separate entries in the source; they are usually repeats but may differ in a detail not shown here. Equal entries are not always repeated. Starred links: 1 amine or outer side, 2 acyl side, 3 side chain; linkers in the order of their positions; H or OH if unused. Positions of bridges follow the written chain, without caps; N, C: chain ends. Non-standard residues stand in square brackets, D forms with d. Residues, ends and D or L forms follow the SMILES beside them. Chains are numbered I, II in the order given. Actinocin(9to1) = Cc1c2oc3c(C)ccc(C(=O)[*:1])c3nc-2c(C(=O)[*:2])c(N)c1=O; aThr = C[C@H](O)[C@H](N)C(=O)O; NMeV = CN[C@H](C(=O)O)C(C)C; Sar = CNCC(=O)O
# Tested on: C57BL/6 mice, Adenocarcinoma 755 sc, tumor weight T/C
# Test: NCI In Vivo Anticancer Drug Screen. Data for tumor model Adenocarcinoma 755 (subcutaneous) in C57BL/6 mice
# Conditions: endpoint: mean tumor weight, higher = larger tumour
# Protocol: The antitumor activity of compounds was measured in mice bearing transplantable tumors. Survival or tumor size were measured and the results are expressed as the measurement made in the treated group (T) divided by the measurement made in the vehicle treated control group (C). The tumor model used in this assay is Adenocarcinoma 755 (subcutaneous) in C57BL/6 mice
# [1] = dose: 10.0 mg/kg/injection, schedule: Q01DX011 (ip), vehicle: saline
# [2] = dose: 20.0 mg/kg/injection, schedule: Q01DX011 (ip), vehicle: saline
# [3] = dose: 30.0 mg/kg/injection, schedule: Q01DX011 (ip), vehicle: saline
# [4] = dose: 40.0 mg/kg/injection, schedule: Q01DX011 (ip), vehicle: saline
# [5] = dose: 50.0 mg/kg/injection, schedule: Q01DX011 (ip), vehicle: carboxymethylcellulose (CMC)
# [6] = dose: 25.0 mg/kg/injection, schedule: Q01DX011 (ip), vehicle: saline
smiles,measurement,setting,value
CCC(C)N1C(=O)CCC1=O (stereo unspecified),T/C,"dose: 4.7 mg/kg/injection, schedule: Q01DX011 (ip), vehicle: saline",102 % of control
same,T/C,"dose: 9.4 mg/kg/injection, schedule: Q01DX011 (ip), vehicle: saline",103 % of control
same,T/C,"dose: 18.8 mg/kg/injection, schedule: Q01DX011 (ip), vehicle: saline",123 % of control
same,T/C,"dose: 37.5 mg/kg/injection, schedule: Q01DX011 (ip), vehicle: saline",119 % of control
same,T/C,"dose: 75.0 mg/kg/injection, schedule: Q01DX011 (ip), vehicle: saline",59 % of control
same,T/C,"dose: 150.0 mg/kg/injection, schedule: Q01DX011 (ip), vehicle: saline",95 % of control
Cn1c(N)nc2nc[nH]c2c1=S,T/C,"dose: 1.0 mg/kg/injection, schedule: Q01DX008 (iv), vehicle: saline",169 % of control
same,T/C,"dose: 2.0 mg/kg/injection, schedule: Q01DX008 (iv), vehicle: saline",173 % of control
same,T/C,"dose: 4.0 mg/kg/injection, schedule: Q01DX008 (iv), vehicle: saline",79 % of control
same,T/C,"dose: 32.0 mg/kg/injection, schedule: Q01DX008 (iv), vehicle: saline",67 % of control
same,T/C,"dose: 64.0 mg/kg/injection, schedule: Q01DX008 (iv), vehicle: saline",65 % of control
CSc1ncnc2nc[nH]c12,T/C,"dose: 1.25 mg/kg/injection, schedule: Q01DX011 (ip), vehicle: carboxymethylcellulose (CMC)",16 % of control
same,T/C,"dose: 2.5 mg/kg/injection, schedule: Q01DX011 (ip), vehicle: carboxymethylcellulose (CMC)",8 % of control
same,T/C,"dose: 7.5 mg/kg/injection, schedule: Q01DX011 (ip), vehicle: saline",58 % of control
same,T/C,[1],23 % of control
same,T/C,"dose: 15.0 mg/kg/injection, schedule: Q01DX011 (ip), vehicle: saline",2 % of control
same,T/C,[2],6 % of control and 9 % of control
same,T/C,"dose: 30.0 mg/kg/injection, schedule: Q01DX011 (ip), vehicle: carboxymethylcellulose (CMC)",5 % of control
same,T/C,[3],1 % of control and 2 % of control and 9 % of control
same,T/C,"dose: 40.0 mg/kg/injection, schedule: Q01DX011 (ip), vehicle: carboxymethylcellulose (CMC)",2 % of control
same,T/C,[4],3 % of control
same,T/C,[5],3 % of control
O=P1(N(CCF)CCCl)NCCCO1 (stereo unspecified),T/C,"dose: 6.25 mg/kg/injection, schedule: Q01DX011 (ip), vehicle: saline",76 % of control
same,T/C,"dose: 12.5 mg/kg/injection, schedule: Q01DX011 (ip), vehicle: saline",94 % of control
same,T/C,[6],66 % of control
same,T/C,"dose: 50.0 mg/kg/injection, schedule: Q01DX011 (ip), vehicle: saline",88 % of control
CN1CC(=O)N=C1N,T/C,"dose: 1000.0 mg/kg/injection, schedule: Q01DX011 (ip), vehicle: saline",121 % of control
"Cc1c2oc3c(C)ccc(C(=O)N[C@@H]4C(=O)N[C@H](C(C)C)C(=O)N5CCC[C@H]5C(=O)N(C)CC(=O)N(C)[C@@H](C(C)C)C(=O)O[C@H]4C)c3nc-2c(C(=O)N[C@@H]2C(=O)N[C@H](C(C)C)C(=O)N3CCC[C@H]3C(=O)N(C)CC(=O)N(C)[C@@H](C(C)C)C(=O)O[C@H]2C)c(N)c1=O (I: [aThr][dV]P[Sar][NMeV] / II: [aThr][dV]P[Sar][NMeV]; ester I:1-I:C, II:1-II:C; linker I:N-II:N via Actinocin(9to1))",T/C,"dose: 0.03 mg/kg/injection, schedule: Q01DX011 (ip), vehicle: saline",3 % of control
C[N+](C)(C)c1ncnc2nc[nH]c12,T/C,"dose: 1.25 mg/kg/injection, schedule: Q#A X022 (ip), vehicle: saline",95 % of control
same,T/C,"dose: 2.5 mg/kg/injection, schedule: Q01DX011 (ip), vehicle: saline",109 % of control
same,T/C,"dose: 2.5 mg/kg/injection, schedule: Q01DX011 (sc), vehicle: saline",56 % of control
same,T/C,"dose: 2.5 mg/kg/injection, schedule: Q#A X022 (ip), vehicle: saline",93 % of control
same,T/C,"dose: 5.0 mg/kg/injection, schedule: Q01DX011 (ip), vehicle: saline",52 % of control
same,T/C,"dose: 5.0 mg/kg/injection, schedule: Q01DX011 (sc), vehicle: saline",34 % of control
same,T/C,"dose: 5.0 mg/kg/injection, schedule: Q#A X022 (ip), vehicle: saline",40 % of control
same,T/C,"dose: 7.5 mg/kg/injection, schedule: Q03DX004 (ip), vehicle: saline",77 % of control
same,T/C,"dose: 10.0 mg/kg/injection, schedule: Q01DX006 (iv), vehicle: saline",50 % of control
same,T/C,[1],12 % of control and 18 % of control
same,T/C,"dose: 10.0 mg/kg/injection, schedule: Q01DX011 (oral), vehicle: saline",58 % of control
same,T/C,"dose: 10.0 mg/kg/injection, schedule: Q01DX011 (sc), vehicle: saline",34 % of control
same,T/C,"dose: 10.0 mg/kg/injection, schedule: Q02DX006 (im), vehicle: saline",54 % of control
same,T/C,"dose: 10.0 mg/kg/injection, schedule: Q#A X022 (ip), vehicle: saline",13 % of control and 18 % of control
same,T/C,"dose: 15.0 mg/kg/injection, schedule: Q03DX004 (ip), vehicle: saline",76 % of control
same,T/C,[2],6 % of control and 11 % of control and 18 % of control
same,T/C,"dose: 20.0 mg/kg/injection, schedule: Q01DX011 (oral), vehicle: saline",43 % of control
same,T/C,"dose: 20.0 mg/kg/injection, schedule: Q01DX011 (sc), vehicle: saline",8 % of control and 16 % of control
same,T/C,"dose: 20.0 mg/kg/injection, schedule: Q02DX006 (im), vehicle: saline",50 % of control
same,T/C,"dose: 20.0 mg/kg/injection, schedule: Q#A X022 (ip), vehicle: saline",8 % of control
same,T/C,"dose: 30.0 mg/kg/injection, schedule: Q03DX004 (ip), vehicle: saline",32 % of control
same,T/C,"dose: 40.0 mg/kg/injection, schedule: Q01DX006 (iv), vehicle: saline",42 % of control
same,T/C,[4],6 % of control and 9 % of control
same,T/C,"dose: 40.0 mg/kg/injection, schedule: Q01DX011 (oral), vehicle: saline",12 % of control and 18 % of control
same,T/C,"dose: 40.0 mg/kg/injection, schedule: Q01DX011 (sc), vehicle: saline",7 % of control
same,T/C,"dose: 40.0 mg/kg/injection, schedule: Q02DX006 (im), vehicle: saline",39 % of control
same,T/C,"dose: 60.0 mg/kg/injection, schedule: Q03DX004 (ip), vehicle: saline",16 % of control and 18 % of control
same,T/C,"dose: 75.0 mg/kg/injection, schedule: Q01DX001 (ip), vehicle: saline",76 % of control and 85 % of control
same,T/C,"dose: 80.0 mg/kg/injection, schedule: Q01DX006 (iv), vehicle: saline",15 % of control
same,T/C,"dose: 80.0 mg/kg/injection, schedule: Q01DX011 (ip), vehicle: saline",5 % of control
same,T/C,"dose: 80.0 mg/kg/injection, schedule: Q01DX011 (oral), vehicle: saline",5 % of control and 10 % of control and 17 % of control
same,T/C,"dose: 80.0 mg/kg/injection, schedule: Q01DX011 (sc), vehicle: saline",5 % of control
same,T/C,"dose: 80.0 mg/kg/injection, schedule: Q02DX006 (im), vehicle: saline",20 % of control
same,T/C,"dose: 120.0 mg/kg/injection, schedule: Q03DX004 (ip), vehicle: saline",10 % of control
same,T/C,"dose: 150.0 mg/kg/injection, schedule: Q01DX001 (ip), vehicle: saline",47 % of control and 48 % of control
same,T/C,"dose: 160.0 mg/kg/injection, schedule: Q01DX011 (oral), vehicle: saline",8 % of control
same,T/C,"dose: 160.0 mg/kg/injection, schedule: Q01DX011 (sc), vehicle: saline",4 % of control
same,T/C,"dose: 300.0 mg/kg/injection, schedule: Q01DX001 (ip), vehicle: saline",33 % of control and 40 % of control
same,T/C,"dose: 320.0 mg/kg/injection, schedule: Q01DX011 (oral), vehicle: saline",5 % of control
Cn1cnc2[nH]cnc(=S)c21,T/C,[5],110 % of control
same,T/C,"dose: 200.0 mg/kg/injection, schedule: Q01DX011 (ip), vehicle: saline",45 % of control
same,T/C,"dose: 300.0 mg/kg/injection, schedule: Q01DX011 (ip), vehicle: saline",30 % of control
same,T/C,"dose: 400.0 mg/kg/injection, schedule: Q01DX011 (ip), vehicle: saline",22 % of control
CC(C)C(=O)OCC1OC(n2cnc3c(=S)nc(N)[nH]c32)C(OC(=O)C(C)C)C1OC(=O)C(C)C (stereo unspecified),T/C,"dose: 1.5 mg/kg/injection, schedule: Q01DX011 (ip), vehicle: saline",68 % of control
same,T/C,"dose: 3.0 mg/kg/injection, schedule: Q01DX011 (ip), vehicle: saline",25 % of control
c1ccc(CNc2ncnc3[nH]ncc23)cc1,T/C,[6],27 % of control
same,T/C,[3],25 % of control
same,T/C,[4],4 % of control

# Source: PubChem BioAssay AID218 (DTP/NCI, 2004)
